Data reported in ChEMBL document CHEMBL1201862, “PubChem BioAssay data set” (2004).
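Values below derive from 48-hour exposures of cells grown in 96-well plates, with endpoints linearly interpolated between the two concentrations bracketing the appropriate inhibition level. GI50 marks 50% less growth.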 Activity calls are given as the source filed them. No stated cut-off is given here; in the data, active = GI50 up to about 1.1 µM and inactive = higher.

Legend:
Assay in all cases: growth of human tumour cells (NCI), 48 h
M14 = test system: M14
SN12C = test system: SN12C
MOLT-4 = test system: MOLT-4
NCI-H522 = test system: NCI-H522
SK-MEL-28 = test system: SK-MEL-28
SF-268 = test system: SF-268
RXF 393 = test system: RXF 393
IGROV-1 = test system: IGROV-1
ACHN = test system: ACHN
SW-620 = test system: SW-620
HL-60 = test system: HL-60
EKVX = test system: EKVX
SNB-19 = test system: SNB-19
K562 = test system: K562
NCI-H23 = test system: NCI-H23
U-251 = test system: U-251
SF-295 = test system: SF-295
NCI-H460 = test system: NCI-H460
OVCAR-3 = test system: OVCAR-3

Measured: GI50

Cc1cn(C2CC(O)C(CO)C2C)c(=O)[nH]c1=O (centres undefined)
inactive: M14 > 100 µM | SN12C > 100 µM | MOLT-4 > 100 µM | NCI-H522 > 100 µM | SK-MEL-28 > 100 µM | SF-268 > 100 µM | RXF 393 > 100 µM | IGROV-1 > 100 µM | ACHN > 100 µM | SW-620 > 100 µM | HL-60 > 100 µM | EKVX > 100 µM | SNB-19 > 100 µM | K562 > 100 µM | NCI-H23 > 100 µM | U-251 > 100 µM | SF-295 > 100 µM | NCI-H460 > 100 µM | OVCAR-3 > 100 µM

CCNc1cnc2c(n1)c(=O)n(C)c(=O)n2C
inactive: M14 > 100 µM | SN12C > 100 µM | MOLT-4 > 100 µM | NCI-H522 > 100 µM | SK-MEL-28 > 100 µM | SF-268 > 100 µM | RXF 393 84.9 µM | IGROV-1 > 100 µM | ACHN > 100 µM | SW-620 > 100 µM | HL-60 > 100 µM | EKVX 34.1 µM | SNB-19 > 100 µM | K562 > 100 µM | NCI-H23 > 100 µM | U-251 > 100 µM | SF-295 > 100 µM | NCI-H460 > 100 µM | OVCAR-3 > 100 µM

c1ccc(CCn2cncn2)cc1
inactive: M14 > 100 µM | SN12C > 100 µM | MOLT-4 > 100 µM | NCI-H522 > 100 µM | SK-MEL-28 > 100 µM | SF-268 > 100 µM | IGROV-1 > 100 µM | ACHN > 100 µM | SW-620 > 100 µM | HL-60 > 100 µM | EKVX > 100 µM | SNB-19 > 100 µM | K562 > 100 µM | NCI-H23 > 100 µM | U-251 > 100 µM | SF-295 > 100 µM | NCI-H460 > 100 µM | OVCAR-3 > 100 µM

CSc1ncc2c(n1)sc1c(=O)n(-c3ccccc3)cnc12
inactive: M14 > 100 µM | SN12C > 100 µM | MOLT-4 > 100 µM | NCI-H522 > 100 µM | SK-MEL-28 > 100 µM | SF-268 > 100 µM | RXF 393 > 100 µM | IGROV-1 > 100 µM | ACHN > 100 µM | SW-620 > 100 µM | SNB-19 > 100 µM | K562 > 100 µM | NCI-H23 > 100 µM | U-251 > 100 µM | SF-295 > 100 µM | NCI-H460 > 100 µM | OVCAR-3 > 100 µM

CNS(=O)(=O)NN(C)S(=O)(=O)c1ccc(F)cc1
inactive: M14 > 100 µM | SN12C > 100 µM | MOLT-4 > 100 µM | NCI-H522 > 100 µM | SK-MEL-28 > 100 µM | SF-268 > 100 µM | RXF 393 > 100 µM | IGROV-1 > 100 µM | ACHN > 100 µM | SW-620 > 100 µM | HL-60 > 100 µM | EKVX > 100 µM | SNB-19 > 100 µM | K562 > 100 µM | NCI-H23 > 100 µM | U-251 > 100 µM | SF-295 > 100 µM | NCI-H460 40.7 µM | OVCAR-3 > 100 µM

Cc1cc(C)c(C2=NO[C@@H]3C(=O)N(c4ccc(Cc5ccc(N6C(=O)[C@H]7C(c8c(C)cc(C)cc8C)=NO[C@H]7C6=O)cc5)cc4)C(=O)[C@H]23)c(C)c1
inactive: M14 64.4 µM | SN12C > 100 µM | MOLT-4 > 100 µM | SK-MEL-28 > 100 µM | SF-268 > 100 µM | RXF 393 > 100 µM | IGROV-1 > 100 µM | SW-620 > 100 µM | HL-60 > 100 µM | EKVX > 100 µM | K562 > 100 µM | NCI-H23 > 100 µM | SF-295 > 100 µM | OVCAR-3 > 100 µM

CCOP(=O)(OCC)C1C(=O)O[C@H]2CCCC[C@@H]12 (some centres undefined)
inactive: M14 > 100 µM | SN12C > 100 µM | MOLT-4 > 100 µM | SK-MEL-28 > 100 µM | SF-268 > 100 µM | RXF 393 > 100 µM | IGROV-1 > 100 µM | ACHN > 100 µM | SW-620 > 100 µM | EKVX > 100 µM | SNB-19 > 100 µM | K562 > 100 µM | NCI-H23 > 100 µM | U-251 > 100 µM | SF-295 > 100 µM | NCI-H460 > 100 µM | OVCAR-3 > 100 µM

Cn1c(C(C#N)c2nc(Cl)ncc2Br)nc2ccccc21 (centres undefined)
inactive: M14 > 100 µM | SN12C > 100 µM | MOLT-4 > 100 µM | NCI-H522 > 100 µM | SK-MEL-28 > 100 µM | SF-268 > 100 µM | RXF 393 > 100 µM | IGROV-1 > 100 µM | ACHN > 100 µM | SW-620 > 100 µM | EKVX > 100 µM | SNB-19 > 100 µM | NCI-H23 > 100 µM | U-251 > 100 µM | SF-295 > 100 µM | NCI-H460 > 100 µM | OVCAR-3 > 100 µM

Cc1cc(C)n(-c2c(O)ccc(O)c2-n2nc(C)cc2C)n1
inactive: M14 > 100 µM | SN12C > 100 µM | MOLT-4 > 100 µM | NCI-H522 > 100 µM | SK-MEL-28 > 100 µM | SF-268 > 100 µM | RXF 393 > 100 µM | IGROV-1 > 100 µM | ACHN > 100 µM | SW-620 > 100 µM | HL-60 > 100 µM | EKVX > 100 µM | SNB-19 > 100 µM | K562 > 100 µM | NCI-H23 > 100 µM | U-251 > 100 µM | SF-295 81.3 µM | NCI-H460 > 100 µM | OVCAR-3 > 100 µM

CC1=NC=C(O)c2ccccc2O1
inactive: M14 > 100 µM | SN12C > 100 µM | MOLT-4 > 100 µM | SK-MEL-28 > 100 µM | SF-268 > 100 µM | RXF 393 > 100 µM | IGROV-1 > 100 µM | ACHN > 100 µM | SW-620 > 100 µM | HL-60 > 100 µM | EKVX > 100 µM | SNB-19 > 100 µM | K562 > 100 µM | NCI-H23 > 100 µM | U-251 > 100 µM | SF-295 45 µM | NCI-H460 > 100 µM | OVCAR-3 > 100 µM

CSc1cc(-c2cc3ccccc3o2)oc(=O)c1C#N
inactive: M14 > 100 µM | SN12C > 100 µM | MOLT-4 > 100 µM | SK-MEL-28 > 100 µM | SF-268 > 100 µM | RXF 393 71.4 µM | IGROV-1 7.4 µM | ACHN > 100 µM | SW-620 > 100 µM | HL-60 18.9 µM | EKVX > 100 µM | SNB-19 68.9 µM | K562 > 100 µM | NCI-H23 > 100 µM | U-251 > 100 µM | SF-295 40.9 µM | NCI-H460 > 100 µM

CCN(CC)/[N+]([O-])=N/OC
inactive: M14 > 100 µM | SN12C > 100 µM | MOLT-4 > 100 µM | NCI-H522 > 100 µM | SK-MEL-28 > 100 µM | SF-268 > 100 µM | RXF 393 > 100 µM | IGROV-1 > 100 µM | ACHN > 100 µM | SW-620 > 100 µM | HL-60 > 100 µM | EKVX > 100 µM | SNB-19 > 100 µM | K562 > 100 µM | NCI-H23 > 100 µM | U-251 > 100 µM | SF-295 > 100 µM | NCI-H460 > 100 µM | OVCAR-3 > 100 µM

CC1(C)O[C@@H](C[C@]2(C#N)C[C@H](CCl)OC(C)(C)O2)C[C@@H](C#N)O1
inactive: M14 > 100 µM | SN12C > 100 µM | MOLT-4 > 100 µM | NCI-H522 > 100 µM | SK-MEL-28 > 100 µM | SF-268 > 100 µM | RXF 393 > 100 µM | IGROV-1 > 100 µM | ACHN > 100 µM | SW-620 > 100 µM | HL-60 > 100 µM | EKVX > 100 µM | SNB-19 > 100 µM | K562 > 100 µM | NCI-H23 > 100 µM | U-251 > 100 µM | SF-295 > 100 µM | NCI-H460 > 100 µM | OVCAR-3 > 100 µM

C=C1C[C@@H]2C[C@@H](C)CC(O)[C@]2(CCCN)C1O (some centres undefined)
inactive: M14 > 100 µM | SN12C > 100 µM | MOLT-4 > 100 µM | NCI-H522 > 100 µM | SK-MEL-28 > 100 µM | SF-268 > 100 µM | RXF 393 > 100 µM | IGROV-1 > 100 µM | ACHN > 100 µM | SW-620 > 100 µM | HL-60 > 100 µM | EKVX > 100 µM | SNB-19 > 100 µM | K562 > 100 µM | NCI-H23 > 100 µM | U-251 > 100 µM | SF-295 > 100 µM | NCI-H460 > 100 µM | OVCAR-3 > 100 µM

COc1cc(O)c2c(c1)C(=O)c1cc(C)cc(O)c1C2=O [PHYSCION]
inactive: M14 > 100 µM | SN12C > 100 µM | MOLT-4 > 100 µM | NCI-H522 78.5 µM | SK-MEL-28 > 100 µM | SF-268 > 100 µM | IGROV-1 > 100 µM | ACHN > 100 µM | SW-620 > 100 µM | HL-60 > 100 µM | EKVX > 100 µM | SNB-19 > 100 µM | K562 > 100 µM | NCI-H23 > 100 µM | U-251 > 100 µM | SF-295 > 100 µM | NCI-H460 > 100 µM | OVCAR-3 > 100 µM
